SMILES strings stand for the structures. Some results are limits rather than exact numbers.

In this assay the target is T1, rat CYP17 (rat testicular microsomes) (Rattus norvegicus, UniProt P11715).
T1 construct: Rat testis tissue was collected and disrupted with 30 strokes of a glass homogenizer; from tissue; host or cells: rat testis (microsomes)
T1 sequence (P11715 1-507): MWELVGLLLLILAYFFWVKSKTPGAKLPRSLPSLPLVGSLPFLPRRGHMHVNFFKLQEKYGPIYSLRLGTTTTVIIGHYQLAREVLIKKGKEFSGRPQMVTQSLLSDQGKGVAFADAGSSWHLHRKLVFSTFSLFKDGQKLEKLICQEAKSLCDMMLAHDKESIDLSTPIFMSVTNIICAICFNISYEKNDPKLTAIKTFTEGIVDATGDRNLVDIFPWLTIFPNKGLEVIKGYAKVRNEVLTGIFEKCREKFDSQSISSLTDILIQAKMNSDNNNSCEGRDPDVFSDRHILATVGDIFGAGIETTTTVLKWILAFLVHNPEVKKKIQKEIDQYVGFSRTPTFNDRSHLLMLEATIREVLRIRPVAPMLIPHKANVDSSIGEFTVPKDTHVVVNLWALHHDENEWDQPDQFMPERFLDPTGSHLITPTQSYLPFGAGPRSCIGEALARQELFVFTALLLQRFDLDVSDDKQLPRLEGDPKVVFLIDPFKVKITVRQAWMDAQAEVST
The assay is described as follows: CYP17 inhibition assay in rat testicular microsomes. In kind it is biochemical. The procedure:
CYP17 Inhibition Assay in Rat Testicular Microsomes (Rat CYP17) or Yeast Microsome Overexpressing Human CYP17
1. NADPH (Sigma): A working stock was prepared by adding 25 μL of 6.5 mM NADPH in each tube. The final concentration of NADPH used in the assay was 325 μM.
2. Potassium Phosphate Buffer: One molar (1M) solutions of K2HPO4 and KH2PO4 were prepared. Eight mL of the 1 M KH2PO4 and 1.98 mL of the 1 M K2HPO4 were combined and the pH was adjusted to 7.4.
3. ^3H3-17α-hydroxypregnenolone (American Radiolabeled Chemicals, Inc., stock 1 μCi/μL): A 1:1 dilution of ^3H3-17α-hydroxypregnenolone in ethanol was prepared by combining 100 μL ^3H3-17α-hydroxypregnenolone+100 μL ethanol for one complete 96 well plate. For the reaction, 2 μL of the diluted ^3H3-17α-hydroxypregnenolone was added in each tube, i.e., 1 μCi/reaction. 4. Microsome Isolation Buffer: The microsome isolation buffer was prepared by combining 250 mM Sucrose, 5 mM EDTA, 10 mM Tris HCl, 4 mM DTT, and adjusting to pH 7.4. 5. TEG Buffer: The TEG buffer was prepared by combining 50 mM Tris HCl, 1 mM EDTA, and 20% Glycerol. 6. Rat Testicular Microsomes: Rat testis tissue was collected and disrupted with 30 strokes of a glass homogenizer on ice with 250 μL of microsome isolation buffer, followed by centrifugation at 10,000 g for 10 minutes at 4° C. The supernatant was collected and centrifuged at 100,000 g for 45 minutes at 4° C. The pellet was dissolved in TEG Buffer and the protein was quantified. The homogenized microsome samples were then frozen at −80° C. • 7. Yeast Microsomes which overexpress the human CYP17 enzyme were obtained from Premas Biotech, India.
Potassium phosphate buffer (470 μL) was prepared as described above and was added to each well of a deep well plate. The test compound was diluted using a TECAN liquid handler and 5 μL of diluted compound was transferred to each well (96 deep well/1 mL). A solution (25 μL) of 6.5 mM NADPH was added (final concentration of 325 μM in the assay). ^3H3-17α-hydroxypregnenolone (2 μL of the working stock) was added to each tube. The plates were then pre-incubated for 15 minutes at 37° C. Following the pre-incubation, either 5 μL rat testicular microsomes (150-160 μg) or 5 μL of yeast microsomes expressing human CYP17 (1.7 pmol), was added. Incubation was at 37° C. for 60 minutes in the presence of oxygen. The plates were then placed in ice and chloroform (500 μL) was added, mixed well and incubated at 4° C. for 20 minutes. The plates were then centrifuged at 1000 rpm for 15 minutes at 4° C.
A portion (300 μL) of the aqueous solution was collected and mixed with a 5% aqueous suspension of activated charcoal (300 μL). The plates were then incubated at 4° C. for 30 minutes, after which the plates were centrifuged at 1000 rpm for 15 minutes at 4° C. From this, 125 μL of the aqueous solution was collected and plated into a 96 well plate. Microscint™ 40 [125 μL, Perkin-Elmer; containing a mixture of a polymer based on alkylphenolethoxylate (20-40%), diethanolamine-phosphoric acid ester ammonium salt (10-20%), sodium dioctyl sulphosuccinate (2.5-10%), triethyl phosphate (2.5-10%), 3,6-dimethyl-4-octyne-3,6-diol (≦2.5%), a polymer based on nonylphenolethoxylate (≦2.5%), diisopropyl naphthalene isomers (40-60%), 2,5-diphenyloxazole (≦2.5%), and 9,10-dimethylanthracene] was added and mixed well. After 30 minutes of incubation, the samples were analyzed with a MicroBeta® Trilux microplate liquid scintillation counter and luminometer (Perkin-Elmer).

Consider `CCC(O)(c1ccncc1)c1cnc(-c2cn[nH]c2)s1` (single isomer, unassigned; (+)) [Example 20, (+)-1-[2-(1H-pyrazol-4-yl)-1,3-thiazol-5-yl]-1-pyridin-4-ylpropan-1-ol], for which the IC50 lay within 201 to 10000 nM.

In turn, `CCC(=O)OC(C)(c1ccncc1)c1cnc(-c2ccc(F)cc2)s1` (centres unmarked) [Example 66, 1-(2-(4-fluorophenyl)thiazol-5-yl)-1-(pyridin-4-yl)ethyl propionate] returned an IC50 below 50 nM.

Compound `CC(O)(c1ccncc1)c1cnc(-c2ccc(F)nc2)s1` (centres unmarked) [Example 22, 1-(2-(6-Fluoropyridin-3-yl)thiazol-5-yl)-1-(pyridin-4-yl)ethanol] gave an IC50 of 201 to 10000 nM.

The compound `CC(=O)OC(C)(c1ccncc1)c1cnc(-c2ccc(F)cc2)s1` (centres unmarked) [Example 65, 1-(2-(4-Fluorophenyl)thiazol-5-yl)-1-(pyridin-4-yl)ethyl acetate] registered an IC50 below 50 nM.

Take `CCCC(=O)OC(C)(c1ccncc1)c1cnc(-c2ccc(F)cc2)s1` (centres unmarked) [Example 67, 1-(2-(4-fluorophenyl)thiazol-5-yl)-1-(pyridin-4-yl)ethyl butyrate]: the IC50 is below 50 nM.
